Reference: US20250084074A1, “SUBSTITUTED HETEROCYCLES AS HSET INHIBITORS” (MERCK PATENT GMBH, priority 2022, published 2025)
Structures can show the parent of a compound that is named as a salt.

molecular target: HSET full length protein (Homo sapiens (Human), UniProt Q9BW19); experiment: HSET ADP-Glo Assay S - 3 μM ATP; assay type: biochemical; settings: 5 nM HSET, 70 μg/mL microtubule, 80 min at rt, read-out: COMBINED HSET ADP GLO IC50
How it was run: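 ADP-Glo luminescence read-out: ATPase reaction at 3 μM ATP, 80 min at room temperature, after a 10 min compound preincubation. Enzyme was full-length human HSET at 5 nM, stimulated by 70 μg/mL paclitaxel-stabilised bovine microtubules in HEPES pH 6.8 buffer with MgCl2, EGTA, Triton X-100 and DTT.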

HSET full length protein, sequence (Q9BW19 whole entry): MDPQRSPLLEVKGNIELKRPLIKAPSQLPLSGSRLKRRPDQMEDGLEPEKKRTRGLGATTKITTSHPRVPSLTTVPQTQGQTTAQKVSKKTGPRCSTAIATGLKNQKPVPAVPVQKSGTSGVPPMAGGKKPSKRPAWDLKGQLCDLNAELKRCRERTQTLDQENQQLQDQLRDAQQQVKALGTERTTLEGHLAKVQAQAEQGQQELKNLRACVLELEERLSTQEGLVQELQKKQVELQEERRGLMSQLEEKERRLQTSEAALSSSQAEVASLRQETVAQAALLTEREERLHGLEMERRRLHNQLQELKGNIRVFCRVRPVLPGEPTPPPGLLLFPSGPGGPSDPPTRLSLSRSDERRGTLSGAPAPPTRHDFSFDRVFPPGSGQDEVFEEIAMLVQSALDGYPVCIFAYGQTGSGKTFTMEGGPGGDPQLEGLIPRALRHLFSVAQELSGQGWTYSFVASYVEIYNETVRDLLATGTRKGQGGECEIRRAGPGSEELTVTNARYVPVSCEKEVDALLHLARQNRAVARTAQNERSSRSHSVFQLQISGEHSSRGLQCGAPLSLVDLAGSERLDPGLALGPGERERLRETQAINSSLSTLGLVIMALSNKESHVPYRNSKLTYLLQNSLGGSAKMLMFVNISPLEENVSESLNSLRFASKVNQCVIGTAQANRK

IC50 [nM]	SMILES
3890	CCCNC(=O)c1cc(NC(=O)CCNc2nccc3ccc(-c4noc(C)n4)cc23)nn1C [Example 73, 1-Methyl-3-(3-((7-(5-methyl-1,2,4-oxadiazol-3-yl)isoquinolin-1-yl)amino)propanamido)-N-propyl-1 H-pyrazole-5-carboxamide]
272	CCCOC(=O)c1sc(C(=O)N(C)CCNc2nccc3ccc(-c4noc(C)n4)cc23)nc1C [Example 74, Propyl 4-methyl-2-(methyl(2-((7-(5-methyl-1,2,4-oxadiazol-3-yl)isoquinolin-1-yl)amino)ethyl)carbamoyl)thiazole-5-carboxylate]
8310	CCc1cc(NC(=O)CCNc2nccc3ccc(-c4noc(C)n4)cc23)nn1C [Example 76]
556	Cc1nc(-c2ccc3ccnc(NCCC(=O)Nc4cc(C(C)(C)C)on4)c3c2)no1 [Example 77, N-(5-(tert-butyl)isoxazol-3-yl)-3-((7-(5-methyl-1,2,4-oxadiazol-3-yl)isoquinolin-1-yl)amino)propenamide]
1500	Cc1nc(-c2ccc3ccnc(NCCC(=O)Nc4cc(C5CC5)on4)c3c2)no1 [Example 78]
4340	CCc1cc(NC(=O)CCNc2nccc3ccc(-c4noc(C)n4)cc23)no1 [Example 79, N-(5-ethylisoxazol-3-yl)-3-((7-(5-methyl-1,2,4-oxadiazol-3-yl)isoquinolin-1-yl)amino)propanamide]
201	Cc1nc(-c2ccc3ccnc(NCCC(=O)Nc4ncc(C(C)(C)C)s4)c3c2)no1 [Example 80, N-(5-(tert-butyl)thiazol-2-yl)-3-((7-(5-methyl-1,2,4-oxadiazol-3-yl)isoquinolin-1-yl)amino)propanamide]
21	CCc1nc(NC(=O)CCNc2nccc3ccc(-c4noc(C)n4)cc23)sc1C(C)(C)C [Example 81, N-(5-(tert-butyl)-4-ethylthiazol-2-yl)-3-((7-(5-methyl-1,2,4-oxadiazol-3-yl)isoquinolin-1-yl)amino)propanamide]
1680	COC1(c2sc(NC(=O)CCNc3nccc4ccc(-c5noc(C)n5)cc34)nc2C)COC1 [Example 83, N-[5-(3-methoxyoxetan-3-yl)-4-methyl-thiazol-2-yl]-3-[[7-(5-methyl-1,2,4-oxadiazol-3-yl)-1-isoquinolyl]amino]propanamide]
57	CCCOC1(c2sc(NC(=O)CCNc3nccc4ccc(-c5noc(C)n5)cc34)nc2C)COC1 [Example 84]
1740	CCCN(C)C(=O)c1sc(NC(=O)CCNc2nccc3ccc(-c4noc(C)n4)cc23)nc1C [Example 85, N,4-dimethyl-2-[3-[[7-(5-methyl-1,2,4-oxadiazol-3-yl)-1-isoquinolyl]amino]propanoylamino]-N-propyl-thiazole-5-carboxamide]
848	Cc1nc(-c2ccc3ccnc(NCCC(=O)Nc4ncc(C5=CCCCC5)s4)c3c2)no1 [Example 86]
9380	COC1(c2cnc(NC(=O)CCNc3nccc4ccc(-c5noc(C)n5)cc34)s2)CCCCC1 [Example 87]
72	Cc1nc(-c2ccc3ccnc(N[C@H]4C[C@@H](C(=O)Nc5nc(C)c(C(C)(C)C)s5)C4)c3c2)no1 [Example 98, (1 s,3s)-N-(5-(tert-butyl)-4-methylthiazol-2-yl)-3-((7-(5-methyl-1,2,4-oxadiazol-3-yl)isoquinolin-1-yl)amino)cyclobutane-1-carboxamide]
7	CCCOC(=O)c1sc(NC(=O)[C@H]2C[C@@H](Nc3nccc4ccc(-c5noc(C)n5)cc34)C2)nc1C [Example 99, Propyl4-methyl-2-((1s,3s)-3-((7-(5-methyl-1,2,4-oxadiazol-3-yl)isoquinolin-1-yl)amino)cyclobutane-1-carboxamido)thiazole-5-carboxylate]
836	Cc1nc(-c2ccc3ccnc(N[C@H]4C[C@@H](C(=O)Nc5cc(C(C)(C)C)on5)C4)c3c2)no1 [Example 100, (1 s,3s)-N-(5-(tert-butyl)isoxazol-3-yl)-3-((7-(5-methyl-1,2,4-oxadiazol-3-yl)isoquinolin-1-yl)amino)cyclobutane-1-carboxamide]
276	CCCCCc1cc(NC(=O)[C@H]2C[C@@H](Nc3nccc4ccc(-c5noc(C)n5)cc34)C2)nn1C [Example 101, (1s,3s)-3-((7-(5-methyl-1,2,4-oxadiazol-3-yl)isoquinolin-1-yl)amino)-N-(1-methyl-5-pentyl-1 H-pyrazol-3-yl)cyclobutane-1-carboxamide]
409	Cc1nc(-c2ccc3ccnc(N[C@H]4C[C@@H](C(=O)Nc5cc(C)c(CC(C)C)s5)C4)c3c2)no1 [Example 102, (1s,3s)-N-(5-isobutyl-4-methylthiophen-2-yl)-3-((7-(5-methyl-1,2,4-oxadiazol-3-yl)isoquinolin-1-yl)amino)cyclobutane-1-carboxamide formate]
676	Cc1nc(-c2ccc3ccnc(N[C@H]4C[C@@H](C(=O)Nc5nc(C)c(C(F)(F)F)s5)C4)c3c2)no1 [Example 103, (1s,3s)-3-((7-(5-methyl-1,2,4-oxadiazol-3-yl)isoquinolin-1-yl)amino)-N-(4-methyl-5-(trifluoromethyl)thiazol-2-yl)cyclobutane-1-carboxamide]

The next lines start with the compound.

SMILES	IC50 [nM]
Cc1nc(-c2ccc3ccnc(NCCC(=O)Nc4cc(C(C)(C)C)n(C)n4)c3c2)no1 [Example 82, N-(5-(tert-butyl)-1-methyl-1 H-pyrazol-3-yl)-3-((7-(5-methyl-1,2,4-oxadiazol-3-yl)isoquinolin-1-yl)amino)propanamide]	1480
CCOC(=O)c1sc(NC(=O)CCNC(=O)c2cccc(-c3noc(C)n3)c2)nc1C(C)C [Example 88, Ethyl 4-isopropyl-2-[3-[[3-(5-methyl-1,2,4-oxadiazol-3-yl)benzoyl]amino]propanoylamino]thiazole-5-carboxylate]	477
Cc1nc(NC(=O)CCNC(=O)c2cccc(-c3cnn(C)c3)c2)sc1C(=O)OC(C)(C)C [Example 89, tert-Butyl-4-methyl-2-(3-(3-(1-methyl-1 H-pyrazol-4-yl)benzamido)propanamido)thiazole-5-carboxylate]	391
CCc1nc(NC(=O)CCNC(=O)c2cccc(-c3noc(C)n3)c2)sc1C(=O)OC [Example 90, Methyl 4-ethyl-2-[3-[[3-(5-methyl-1,2,4-oxadiazol-3-yl)benzoyl]amino]propanoylamino]thiazole-5-carboxylate]	556
CCOC(=O)c1sc(NC(=O)CCNC(=O)c2cccc(-c3noc(C)n3)c2)nc1C(F)(F)F [Example 91, Ethyl 2-[3-[[3-(5-methyl-1,2,4-oxadiazol-3-yl)benzoyl]amino]propanoylamino]-4-(trifluoromethyl)thiazole-5-carboxylate]	415
CCOC(=O)c1sc(NC(=O)CCNC(=O)c2cccc(-c3noc(C)n3)c2)nc1CC [Example 92, Ethyl 4-ethyl-2-[3-[[3-(5-methyl-1,2,4-oxadiazol-3-yl)benzoyl]amino]propanoylamino]thiazole-5-carboxylate]	45
Cc1nc(-c2cccc(C(=O)NCCC(=O)Nc3nc(C)c(/C=C/C4CCCC4)s3)c2)no1 [Example 93, N-[3-[[5-[(E)-2-cyclopentylvinyl]-4-methyl-thiazol-2-yl]amino]-3-oxo-propyl]-3-(5-methyl-1,2,4-oxadiazol-3-yl)benzamide]	691
COC/C=C/c1sc(NC(=O)CCNC(=O)c2cccc(-c3noc(C)n3)c2)nc1C [Example 94, N-[3-[[5-[(E)-3-methoxyprop-1-enyl]-4-methyl-thiazol-2-yl]amino]-3-oxo-propyl]-3-(5-methyl-1,2,4-oxadiazol-3-yl)benzamide]	13400
C=C(c1ccccc1)c1sc(NC(=O)CCNC(=O)c2cccc(-c3noc(C)n3)c2)nc1C [Example 95, 3-(5-Methyl-1,2,4-oxadiazol-3-yl)-N-[3-[[4-methyl-5-(1-phenylvinyl)thiazol-2-yl]amino]-3-oxo-propyl]benzamide]	823
Cc1nc(-c2ccc3ccnc(N[C@H]4C[C@@H](C(=O)Nc5ncc(C(F)(F)C(F)(F)F)s5)C4)c3c2)no1 [Example 96, 3-[[7-(5-methyl-1,2,4-oxadiazol-3-yl)-1-isoquinolyl]amino]-N-[5-(1,1,2,2,2-pentafluoroethyl)thiazol-2-yl]cyclobutanecarboxamide]	2190
Cc1nc(-c2cccc(C(=O)N[C@H]3C[C@@H](C(=O)Nc4nc(C)c(C(=O)OC(C)(C)C)s4)C3)c2)no1 [Example 104, tert-Butyl 4-methyl-2-((1s,3s)-3-(3-(5-methyl-1,2,4-oxadiazol-3-yl)benzamido)cyclobutane-1-carboxamido)thiazole-5-carboxylate]	93
Cc1nc(NC(=O)[C@H]2C[C@@H](NC(=O)c3cccc(-c4ncon4)c3)C2)sc1C(=O)OC(C)(C)C [Example 105, tert-Butyl 2-((1s,3s)-3-(3-(1,2,4-oxadiazol-3-yl)benzamido)cyclobutane-1-carboxamido)-4-methylthiazole-5-carboxylate]	1590
Cc1nnc(-c2cccc(C(=O)N[C@H]3C[C@@H](C(=O)Nc4nc(C)c(C(=O)OC(C)(C)C)s4)C3)c2)o1 [Example 106, tert-Butyl 4-methyl-2-((1s,3s)-3-(3-(5-methyl-1,3,4-oxadiazol-2-yl)benzamido)cyclobutane-1-carboxamido)thiazole-5-carboxylate]	132
Cc1nc(NC(=O)[C@H]2C[C@@H](NC(=O)c3cccc(-c4nnn(C)n4)c3)C2)sc1C(=O)OC(C)(C)C [Example 107, tert-Butyl-4-methyl-2-((1s,3s)-3-(3-(2-methyl-2H-tetrazol-5-yl)benzamido)cyclobutane-1-carboxamido)thiazole-5-carboxylate]	41
Cc1nc(NC(=O)[C@H]2C[C@@H](Nc3nccc4ccc(Cl)cc34)C2)sc1C(=O)OC(C)(C)C [Example 108, tert-Butyl 2-((1s,3s)-3-((7-chloroisoquinolin-1-yl)amino)cyclobutane-1-carboxamido)-4-methylthiazole-5-carboxylate]	1620
